Experimental data published in US20070232577A1, “Synthetic pentacyclic triterpenoids and derivatives of betulinic acid and betulin” (Advanced Life Sciences, Inc., priority 2006, published 2007).
Values after ≈ are worked out from the molar mass of the structure shown.

Tests used:
MCF-7 (breast carcinoma) = assay: MTS cell viability assay, MCF-7; type: cell-based; settings: Homo sapiens, MCF7, 72 h
Procedure: (§1) All treatments were performed in triplicate. […] Cells were incubated at 37° C. for 72 h.

LN-229 (glioblastoma) = assay: MTS cell viability assay, LN-229; type: cell-based; settings: Homo sapiens, 72 h
Procedure: as §1

Daoy (glioblastoma) [1] = assay: MTS cell viability assay, Daoy; settings: for IC50: Homo sapiens, Daoy, 72 h, read-out: IC50 Daoy
Procedure: (§2) Cells were plated, the evening before treatment, for each treatment on 96-well plates (1×10^4 cells/well) in 100 μL volume per well. Drug solutions were prepared by diluting each test compound in DSMO (10 mM) with the appropriate cell growth media for each individual cell line, or in “Universal Media” if several cell lines were to be assayed in parallel, immediately prior to cell treatment. Universal Media consisted of 5 mL sodium pyruvate (100×liquid stock, CellGro), 5 mL glucose (100×, 45% liquid stock, CellGro), 5 mL Penicillin/Streptomycin (100×liquid stock, CellGro), 10 mL sodium bicarbonate (50×liquid stock, CellGro), 25 mL Fetal Calf Serum, 1.25 mL insulin (4 mg/mL, Gibco) and 449 mL RPMI media with 2 mM glutamine for a total volume of 500 mL. Cells were treated by aspirating media from each well and adding 80 μL of each drug solution to the attached cells. All treatments were performed in triplicate. Growth media (80 μL) were added to 3 blank wells (no cells) to measure background from the growth media Growth media alone (no DMSO or test compond) was added to 2 wells containing cells to measure the baseline MTS activity and vehicle (DMSO) control solutions were also included to monitor basal toxicity from DMSO. Cells were incubated at 37° C. for 72 h. MTS reagent (per 96-well plate) were prepared by combining 2 mL of MTS working solution (Cell Titer AQueous Non-Radioactive Cell Proliferation Assay, Promega, cat#G1112), 100 μL of 0.92 mg/mL phenazine methosulfate/Dulbecco's PBS and 2.1 mL growth media. MTS reagent (40 μL) were added to each well and incubated at 37° C. for 1.5 to 4 h. Plates were gently shaken by hand until solution in each well appeared homogenous. Absorbances at 490 nm were measured on a plate reader at multiple time points following the addition of MTS reagent for each plate. Triplicate absorbance (490 nm) measurements were averaged following background (no cell) subtraction for each drug concentration. Percent Cell Viability was calculated for each drug concentration using the following equation: {[Absorbances(drug treated)]/[Absorbances(DMSO treated)]}×100%
(§3) Percent viability (y-axis) was plotted against drug concentration (x-axis) and the resulting graph was used to determine the 50% inhibitory concentration (IC50) for each drug.

A-375 (melanoma) = assay: MTS cell viability assay, A-375; type: cell-based; settings: Homo sapiens, 72 h
Procedure: as §1

HT-29 (colon carcinoma) = assay: MTS cell viability assay, HT-29; type: cell-based; settings: Homo sapiens, 72 h
Procedure: as §1

Daoy = assay: Caspase activation assay, Daoy; type: cell-based
Procedure: All treatments were performed in duplicate. […] Cells were incubated at 37° C. for 8 h. Caspase assay reagent (per 96-well plate) was prepared according to manufacturer's instructions (Homogeneous Caspases Assay, fluorometric, Roche) by combining 6.3 mL Incubation Buffer with 0.7 mL of Substrate Stock Solution. Caspase assay reagent (70 μL) was added to each well; the plate was gently shaken by hand for 15-20 seconds and incubated at 37° C. for 4 h.
Fluorescent emission was measured at 535 nm on a plate reader using the “homogeneous caspase” program (excitation Wavelength=490 nm, emission wavelength=535 nm). Duplicate wells for each treatment were averaged following background (no cells) subtraction (emission 535 nm value from all experimental emission 535 nm values) for each drug concentration.
DMSO treatment represented baseline caspase activation in the absence of drug. The percent changes in caspase activity were plotted on the y-axis for each drug treatment.

SK-MEL-2 (melanoma) [2] = assay: MTS cell viability assay, SK-MEL-2; settings: Homo sapiens, SK-MEL-2, 72 h, read-out: IC50 SK-MEL-2
Procedure: as §2, §3

[3] = test system: OVCAR-3 (ovarian carcinoma); assay: MTS cell viability assay, OVCAR-3; type: cell-based; settings: Homo sapiens, 72 h
Procedure: as §1

SK-MEL-2 (melanoma) [4] = test system: SK-MEL-2 (melanoma)
Procedure: as §2, §3

Daoy (glioblastoma) [5] = test system: Daoy (glioblastoma)
Procedure: as §2, §3

[6] = test system: SK-MEL-2, A-375, Daoy, LN-229, OVCAR-3, HT-29, MCF-7 cell lines; type: cell-based
Procedure: as §1

Structure (SMILES)	IC50 (MCF-7 (breast carcinoma)) [µg/mL]	IC50 (LN-229 (glioblastoma)) [µg/mL]	IC50 (Daoy (glioblastoma) [1]) [µg/mL]	selectivity of cytotoxicity for Daoy (in words) (Daoy (glioblastoma) [1]; MTS assay, Daoy versus other cell lines)	IC50 (A-375 (melanoma)) [µg/mL]	IC50 (HT-29 (colon carcinoma)) [µg/mL]	caspase activation in Daoy (Daoy; Daoy, percent change versus DMSO)	selectivity of apoptosis activation, Daoy versus SK-MEL-2 (in words) (Daoy; caspase assay, Daoy in preference to SK-MEL-2)	IC50 (SK-MEL-2 (melanoma) [2]) [µg/mL]	IC50 [3] [µg/mL]	improvement in cytotoxicity relative to betulinic acid 1 in SK-MEL-2 (SK-MEL-2 (melanoma) [4])	improvement in cytotoxicity relative to betulinic acid 1 in Daoy (Daoy (glioblastoma) [5])	cytotoxic potency across the cell line panel (in words) [6]
C=C(C)[C@@H]1CC[C@]2(COC(=O)CBr)CC[C@]3(C)[C@H](CC[C@@H]4[C@@]5(C)CC[C@H](O)C(C)(C)[C@@H]5CC[C@]43C)[C@@H]12 [Compound 13, ((1R,3aS,5aR,5bR,7aR,9S,11aR,11bR,13aR,13b R)-9-hydroxy-5a,5b,8,8,11a-pentamethyl-1-(prop-1-en-2-yl)icosahydro-1H-cyclopenta[a]chrysen-3a-yl)methyl 2-bromoacetate]	45 (≈ 79.8 µM)	6 (≈ 10.6 µM)	1.4 (≈ 2.48 µM)	robust cytotoxic activity in Daoy but not in SK-MEL-2	29 (≈ 51.4 µM)	10 (≈ 17.7 µM)	approx. 200%	selectively activate apoptosis in Daoy in preference to SK-MEL-2	33 (≈ 58.5 µM)	6 (≈ 10.6 µM)	–	–	–
C=C(C)[C@@H]1CC[C@]2(C(=O)O)CC[C@]3(C)[C@H](CC[C@@H]4[C@@]5(C)CC[C@H](OC(=O)/C=C/c6ccc(O)c(O)c6)C(C)(C)[C@@H]5CC[C@]43C)[C@@H]12 [Compound 25, (1R,3aS,5aR,5bR,7aR,9S,11aR,11bR,13aR, 13bR)-9-((E)-3-(3,4-dihydroxyphenyl)acryloyloxy)-5a,5b,8,8,11a-pentamethyl-1-(prop-1-en-2-yl)icosahydro-1H-cyclopenta[a]chrysene-3a-carboxylic acid]	–	–	–	–	–	–	–	–	–	–	greater than 5 fold	–	–
C=C(C)[C@@H]1CC[C@]2(CNCCO)CC[C@]3(C)[C@H](CC[C@@H]4[C@@]5(C)CC[C@H](O)C(C)(C)[C@@H]5CC[C@]43C)[C@@H]12 [Compound 69, (1R,3aS,5aR,5bR,7aR,9S,11aR,11bR,13aR,13bR)-3a-((2-hydroxyethylamino)methyl)-5a,5b,8,8,11a-pentamethyl-1-(prop-1-en-2-yl)icosahydro-1H-cyclopenta[a]chrysen-9-ol]	< 10	–	< 2	–	4 (≈ 8.23 µM)	2 (≈ 4.12 µM)	–	–	5 (≈ 10.3 µM)	< 10	greater than 5 fold	greater than 5 fold	potent across the entire cell line panel
C=C(C)[C@@H]1CC[C@]2(CNCC(=O)OC)CC[C@]3(C)[C@H](CC[C@@H]4[C@@]5(C)CC[C@H](OC(C)=O)C(C)(C)[C@@H]5CC[C@]43C)[C@@H]12 [Compound 72, methyl 2-(((1R,3aS,5aR,5bR,7aR,9S,1iaR,11bR,13aR,13bR)-9-acetoxy-5a,5b,8,8,11a-pentamethyl-1-(prop-1-en-2-yl)icosahydro-1H-cyclopenta[a]chrysen-3a-yl)methylamino)acetate]	75 (≈ 135 µM)	> 75	6 (≈ 10.8 µM)	–	6 (≈ 10.8 µM)	> 75	–	–	6 (≈ 10.8 µM)	36 (≈ 64.8 µM)	greater than 5 fold	greater than 5 fold	–
